Source: patent publication US20090104128A1, “Denture adhesive compositions with anti-ucler agents” (Orahealth Corporation, priority 2007, published 2009)

System: mouth ulcers
Test: tests of cobalamin forms for treatment of mouth ulcers
Type: in vivo
Settings: compared with other cobalamin forms (cyanocobalamin, hydroxocobalamin); tests not described

C/C1=C2/[N-][C@H]([C@H](CC(N)=O)[C@@]2(C)CCC(=O)NC[C@@H](C)OP(=O)([O-])O[C@H]2[C@@H](O)[C@@H](n3cnc4cc(C)c(C)cc43)O[C@@H]2CO)[C@]2(C)N=C(/C(C)=C3N=C(/C=C4N=C1[C@@H](CCC(N)=O)C\4(C)C)[C@@H](CCC(N)=O)[C@]\3(C)CC(N)=O)[C@@H](CCC(N)=O)[C@]2(C)CC(N)=O.[CH3-].[Co+3] [Methylcobalamin, methylcobalamin]
treatment of mouth ulcers: superior
